According to US11872236B2, “Pharmacological agents for treating ocular diseases” (CALASIA PHARMACEUTICALS, INC., priority 2018, dated 2024):
Values after ≈ are worked out from the molar mass of the structure shown. Where two headings read alike, the source gives them in different places.

Columns and labels:
[1] = test system: SRA 01/04 HLE cells; assay: Cell-based UV protection, viability by Alamar blue; set-up: species or system human; details: Table 5;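 further: cells pretreated with compound at a range of concentrations before UV irradiation, viability read 24 h after exposure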
[2] = test system: human lens epithelial (HLE) cells; assay: Cell-based heat protection, viability by Alamar blue; set-up: Cell Heat % protection: concentration or dose not given beside the values; details: for Cell-based [Heat] (max % net protection): Table 5
Procedure: Alamar blue was used for assessing viability. Mean±SEM of the measurements are shown.
Cell-based using assays using human lens epithelial cell lines SRA 01/04 and B3 were also performed. The cells were exposed to UV or heat and cell viability assessed 24 hours post-exposure by Alamar blue staining. In another experiment, SRA 01/04 cells were pre-incubated with varying concentrations of compounds two hours prior to UV exposure. Relative protection was measured as percent viability compared to vehicle control 24 hours following UV exposure. Mean±SEM of the measurements are shown.

[3] = test system: porcine eye lens; assay: Ex vivo eye lens exposed to UVC radiation, cataract scoring; details: Table 8; printed as a percentage
Procedure: The top row of the figure corresponds to lenses that were not exposed to UVC but contained same percent of DMSO as those that were exposed to UVC. The lenses were monitored and imaged for three days following the exposure to UVC. No drug was added to the lenses post UVC exposure.

[4] = molecular target: T1, alpha-A crystalline (Homo sapiens, UniProt P02489); assay: Ca+2 and UVC induced aggregation of alpha-A crystalline (absorbance screen); type: biochemical; details: for inhibition at 200 µM: Ca+2 and UVC induced aggregation of alpha-A crystalline, read-out: Percent protection (at 200 μM); for EC50: preventing Ca+2 and UVC induced aggregation of alpha-A crystalline;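 on all read-outs here: recombinant human alpha-A crystallin (500 µg/ml) preincubated 30 min with compound, then UV-induced aggregation tracked by absorbance at time points from 0 to 120 min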
T1 sequence (P02489 1-173): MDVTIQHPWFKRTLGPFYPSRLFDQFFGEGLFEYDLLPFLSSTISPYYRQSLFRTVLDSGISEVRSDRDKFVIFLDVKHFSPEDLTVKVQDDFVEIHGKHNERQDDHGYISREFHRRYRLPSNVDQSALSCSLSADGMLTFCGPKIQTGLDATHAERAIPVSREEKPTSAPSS

[5] = Solubility with FDA approved excipients; type: physicochemical
Procedure: Solubility: The solubility of CAP1160 and CAP4196 was tested with different FDA approved excipients such as cyclodextrin, PEG-b-PCL, Kolliphor-EL, Kolliphor-40, sorbitol, propelyne gycol, sodium phosphate, etc. […] This makes the formulation safe for topical use (see Table 6).

[6] = test system: New Zealand white rabbits; assay: Ocular safety / MTD, repeated dose for 7 days; type: in vivo; details: for Mortality and Morbidity: 50 μL × 4 times a day in each eye, male
Procedure: Prodrug CAP4196 is well-tolerated up to 10% concentration in New Zealand white rabbits. Initial maximum tolerated dose studies (MTD) help identify observable signs of toxicity and provide a rationale for setting dose levels in later definitive studies. Therefore, the MTD of CAP4196 was evaluated in New Zealand white rabbits. Four animals per group were dosed with increasing concentrations (0.25, 2.5, 8 and 10%) of CAP4196 at 50 μl volume q.i.d. dosing at 2 hrs interval. Following the dosing, the animals were evaluated for mortality and morbidity, ophthalmological examination, body weight, and clinical pathology before start of dosing then on dosing days 2, 4, and 6 prior to first dose instillation and on day 7, one hour after last dose instillation.

[7] = molecular target: TTR (Homo sapiens, UniProt P02766); details: Sant'Anna, R. et al. (2016); cited from earlier work

Compound | Cell-based [UV] (max % net protection) [1] [%] | Cell-based [Heat] (max % net protection) [2] [%] | other results
O=C(c1cccc([N+](=O)[O-])c1)c1ccc2c(c1)C(=O)OC2=O [CAP4265] | 129 | 17 | 
COc1cc(O)c(C(=O)c2cc(S(=O)(=O)[O-])c(OC)cc2O)cc1S(=O)(=O)[O-].[Na+].[Na+] [CAP4136] | 70 | 5 | 
CNc1ccc2c(O)cc(S(=O)(=O)O)cc2c1 [CAP4184] |  |  | Ex-vivo [3]: 15%; Cell Heat % protection ([2]; Table 8): 4%
COc1ccc(C(=O)c2ccccc2)cc1 [CAP4130] | 55 | 42 | 
O=C(O)c1ccc(C(=O)c2ccccc2)cc1 [CAP4172] | 67 | 9 | 
Nc1ccc(C(=O)c2ccccc2)cc1N [CAP4129] | 37 | 0 | 
COc1ccc(C(=O)c2ccccc2)cc1OC [CAP4132] | 39 | 0 | 
O=C(c1ccccc1)c1ccc(O)c(O)c1 [CAP1347] | 28 | 8 | inhibition at 200 µM [4]: 13%; EC50 [4]: 115 µM
O=C(c1cccc(F)c1)c1cccc(F)c1 [CAP4161] | 38 | 8 | 
O=C(O)c1ccc(C(=O)c2ccccc2C(=O)O)cc1 [CAP4173] | 61 | 0 | 
O=C(c1ccccc1)c1ccc(O)c(O)c1O [CAP4133] | 22 | 18 | 
O=C(c1cc(O)c(O)c([N+](=O)[O-])c1)c1ccccc1F [CAP3089] | 31 | 0 | inhibition at 200 µM [4]: 56%; EC50 [4]: 362 µM
Cc1ccc(C(=O)c2ccccc2)c(N)c1 [CAP4152] | 17 | 0 | 
Cc1ccc(C(=O)c2cc(OP(=O)([O-])[O-])c(O)c([N+](=O)[O-])c2)cc1.[Na+].[Na+] [CAP4196, Sodium 2-hydroxy-5-(4-methylbenzoyl)-3-nitrophenyl phosphate] | 63 | 38 | pH of the formulation ([5]; 100 mg/ml, only water as solvent): 6.65; solubility ([5]; aqueous with cosolvent or surfactant or cyclodextrin, water with (2-hydroxypropyl)-beta cyclodextrin (1:1), read-out: Solubility in water with (2-hydroxypropyl)-beta cyclodextrin mg/ml (1:1)): 100 mg/mL; solubility ([5]; pH 6.65, only water as solvent, read-out: solubility): 100 mg/mL; improvement in solubility ([5]; phosphate prodrug, only water as solvent): greater than 660 fold; solubility ([5]; water, read-out: Solubility in water): 100 mg/mL; local reactions ([6]; 10% w/v, 50 μL, 4 times a day): only few temporary local reactions like excessive rubbing of eyes and redness; systemic toxicity ([6]; 10% w/v, 50 μL, 4 times a day): did not produced any systemic toxicity; MTD (highest dose concentration) ([6]; 50 μL, 4 times a day, 2 hours interval, 7 days): 10%; Mortality and Morbidity ([6]; ophthalmic formulation 0.25% w/v): 0; Mortality and Morbidity ([6]; ophthalmic formulation 4% w/v): 0; Mortality and Morbidity ([6]; ophthalmic formulation 8% w/v): 0; Mortality and Morbidity ([6]; ophthalmic formulation 10% w/v): 0; well-tolerated concentration ([6]; topical ocular, repeated dose 7 days): up to 10%
O=C(O)c1ccc(C(=O)c2ccc(C(=O)O)cc2)cc1 [CAP4160] | 82 | 0 | 
O=C(c1ccccc1)c1ccccc1 [CAP4127] | 55 | 9 | 
COc1cc(O)c(C(=O)c2ccccc2)cc1S(=O)(=O)[O-].[Na+] [CAP4135] | 75 | 4 | 
NC(=O)Cc1cccc(C(=O)c2ccccc2)c1N [CAP4281] | 38 | 8 | 
O=C(c1ccccc1)c1ccccc1S(=O)(=O)c1ccccc1 [CAP4279] | 5 | 0 | 
Cc1ccc(C(=O)c2cc(O)c(O)c([N+](=O)[O-])c2)cc1 [CAP1160, Tolcapone] | 68 | 23 | With Kolliphor 40 (1:1) In water [5]: 1; With PEG-b-PCL (1:1) mg/ml in water [5]: 1 mg/mL; improvement in solubility [5]: 10 fold; solubility ([5]; aqueous with cosolvent or surfactant or cyclodextrin, Solubility in water with (2-hydroxypropyl)-beta cyclodextrin mg/ml (1:1)): 2 mg/mL (≈ 7.32 mM); solubility ([5]; aqueous with cosolvent or surfactant or cyclodextrin, solubility): 1.5 mg/mL (≈ 5.49 mM); solubility ([5]; water, Solubility in water mg/ml): 0.1 mg/mL (≈ 0.366 mM); inhibition at 200 µM [4]: 65%; EC50 [4]: 63.5 µM; TTR aggregation inhibition [7]: potent TTR aggregation inhibitor
COc1cc(O)c(C(=O)c2ccccc2)cc1S(=O)(=O)O [CAP4162] | 60 | 3 | 
